Laboratory results as given in the NIST ThermoML archive (doi:10.1021/acs.jced.9b00780).
± gives the expanded uncertainty stated by the source.

What was measured:
[1] = wn = mass fraction of the nth substance listed; details: 298.15 K, 100 kPa, Liquid, Vibrating tube method
[2] = refractive index (Na D-line) (dimensionless); wn = mass fraction of the nth substance listed; details: 298.15 K, 100 kPa, Liquid, Standard Abbe refractometry

Row | Compound | mass density ([1]; w1 = 0.2259) [kg/m3] | refractive index ([2]; w1 = 0.2259) | mass density ([1]; w1 = 0.0308) [kg/m3] | refractive index ([2]; w1 = 0.0308)
1 | O=B[O-].[Na+] [sodium metaborate] + O | 1267.8 ± 6.2 | 1.3872 ± 0.0033 |  | 
2 | O=BOB([O-])OB([O-])OB=O.[Na+].[Na+] [sodium tetraborate] + O |  |  | 1025.65 ± 0.63 | 1.339 ± 0.003
